Patent US6737383B1, “Herbicidal oxadiazolidines” (priority 1999, dated 2004)

Assays:
bedstraw = assay: Test B pre/postemergence bedstraw; format: in vivo, Galium aparine
Outline: (§1)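 Herbicidal effect was estimated by eye on a ten-point control scale after plants spent twelve to sixteen days in a greenhouse following soil or foliar treatment. Foliar sprays targeted plants at one to four leaves; all doses were formulated in a non-phytotoxic solvent with surfactant.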

blackgrass = assay: Test B pre/postemergence blackgrass; format: in vivo, Alopecurus myosuroides
Outline: as §1

surinam grass = assay: Test B pre/postemergence surinam grass; format: in vivo, Brachiaria decumbens
Outline: as §1

cocklebur = assay: Test B pre/postemergence cocklebur; format: in vivo, Xanthium strumarium
Outline: as §1

corn = assay: Test B pre/postemergence corn; format: in vivo, Zea mays
Outline: as §1

crabgrass = assay: Test B pre/postemergence crabgrass; format: in vivo, Digitaria sanguinalis
Outline: as §1

giant foxtail = assay: Test B pre/postemergence giant foxtail; format: in vivo, Setaria faberii
Outline: as §1

morningglory = assay: Test B pre/postemergence morningglory; format: in vivo, Ipomoea hederacea
Outline: as §1

pigweed = assay: Test B pre/postemergence pigweed; format: in vivo, Amaranthus retroflexus
Outline: as §1

rape = assay: Test B pre/postemergence rape; format: in vivo, Brassica napus
Outline: as §1

soybean = assay: Test B pre/postemergence soybean; format: in vivo, Glycine max
Outline: as §1

sugar beet = assay: Test B pre/postemergence sugar beet; format: in vivo, Beta vulgaris
Outline: as §1

velvetleaf = assay: Test B pre/postemergence velvetleaf; format: in vivo, Abutilon theophrasti
Outline: as §1

wheat = assay: Test B pre/postemergence wheat; format: in vivo, Triticum aestivum
Outline: as §1

wild oat = assay: Test B pre/postemergence wild oat; format: in vivo, Avena fatua
Outline: as §1

purple nutsedge = assay: Test B pre/postemergence purple nutsedge; format: in vivo, Cyperus rotundus
Outline: as §1

[1] = Postemergence, Rate 62 g/ha, scale 0 to 10, 0 is no effect, 10 is complete control
[2] = Postemergence, Rate 125 g/ha, scale of 0 to 10 where 0 is no effect and 10 is complete control
[3] = Postemergence, Rate 500 g/ha, scale 0 (no effect) to 10 (complete control)
[4] = Preemergence, Rate 250 g/ha, scale 0 (no effect) to 10 (complete control)
[5] = Rate 62 g/ha, Preemergence, scale 0 to 10
[6] = Rate 125 g/ha, Preemergence, scale 0 to 10 (0 no effect, 10 complete control)
[7] = Rate 250 g/ha, Postemergence, scale 0 to 10, 0 is no effect, 10 is complete control
[8] = Rate 500 g/ha, Preemergence, scale 0 to 10 (0 no effect, 10 complete control)
[9] = Rate 500 g/ha, Postemergence, scale 0 to 10, 0 is no effect, 10 is complete control
[10] = Postemergence, Rate 1000 g/ha, scale 0 to 10 (0 no effect, 10 complete control)
[11] = Rate 1000 g/ha, Preemergence, scale 0 to 10 (0 no effect, 10 complete control)

CCOC(CC)n1c(=O)on(C(=O)N(c2ccc(Cl)cc2)C(C)C)c1=O (stereo not shown) [Compound 772]
Plant response rating, Bedstraw (bedstraw; [1]): 0
Bedstraw plant response rating (bedstraw; [2]): 0
Bedstraw plant response rating (bedstraw; [3]): 0
Bedstraw plant response rating (bedstraw; [4]): 0
Bedstraw plant response rating (bedstraw; [5]): 0
Bedstraw plant response rating (bedstraw; [6]): 0
Bedstraw plant response rating (bedstraw; [7]): 0
Bedstraw plant response rating (bedstraw; [8]): 0
Plant response rating, Blackgrass (blackgrass; [1]): 0
Blackgrass plant response rating (blackgrass; [2]): 0
Blackgrass plant response rating (blackgrass; [3]): 0
Blackgrass plant response rating (blackgrass; [4]): 0
Blackgrass plant response rating (blackgrass; [5]): 0
Blackgrass plant response rating (blackgrass; [6]): 0
Blackgrass plant response rating (blackgrass; [7]): 0
Blackgrass plant response rating (blackgrass; [8]): 0
Plant response rating, B. signalgrass (surinam grass; [1]): 0
B. signalgrass plant response rating (surinam grass; [2]): 0
B. signalgrass plant response rating (surinam grass; [4]): 0
B. signalgrass plant response rating (surinam grass; Rate 62 g/ha, Preemergence, scale 0 (no effect) to 10 (complete control)): 0
B. signalgrass plant response rating (surinam grass; [6]): 0
B. signalgrass plant response rating (surinam grass; [7]): 0
B. signalgrass plant response rating (surinam grass; [9]): 0
B. signalgrass plant response rating (surinam grass; [8]): 0
Plant response rating, Cocklebur (cocklebur; [1]): 0
Cocklebur plant response rating (cocklebur; [2]): 0
Cocklebur plant response rating (cocklebur; [3]): 0
Cocklebur plant response rating (cocklebur; [4]): 0
Cocklebur plant response rating (cocklebur; [5]): 0
Cocklebur plant response rating (cocklebur; [6]): 0
Cocklebur plant response rating (cocklebur; [7]): 0
Cocklebur plant response rating (cocklebur; [8]): 0
Plant response rating, Corn (corn; [1]): 0
Corn plant response rating (corn; [2]): 0
Corn plant response rating (corn; [3]): 0
Corn plant response rating (corn; [4]): 0
Corn plant response rating (corn; [5]): 0
Corn plant response rating (corn; [6]): 0
Corn plant response rating (corn; [7]): 0
Corn plant response rating (corn; [8]): 0
Plant response rating, Crabgrass (crabgrass; [1]): 0
Crabgrass plant response rating (crabgrass; [2]): 0
Crabgrass plant response rating (crabgrass; [3]): 0
Crabgrass plant response rating (crabgrass; [4]): 0
Crabgrass plant response rating (crabgrass; [5]): 0
Crabgrass plant response rating (crabgrass; [6]): 0
Crabgrass plant response rating (crabgrass; [7]): 0
Crabgrass plant response rating (crabgrass; [8]): 0
Plant response rating, Giant foxtail (giant foxtail; [1]): 0
Giant foxtail plant response rating (giant foxtail; [2]): 0
Giant foxtail plant response rating (giant foxtail; [3]): 0
Giant foxtail plant response rating (giant foxtail; [4]): 0
Giant foxtail plant response rating (giant foxtail; [5]): 0
Giant foxtail plant response rating (giant foxtail; [6]): 0
Giant foxtail plant response rating (giant foxtail; [7]): 0
Giant foxtail plant response rating (giant foxtail; [8]): 0
Plant response rating, Morningglory (morningglory; [1]): 0
Morningglory plant response rating (morningglory; [2]): 0
Morningglory plant response rating (morningglory; [3]): 2
Morningglory plant response rating (morningglory; [5]): 0
Morningglory plant response rating (morningglory; [6]): 0
Morningglory plant response rating (morningglory; [7]): 0
Morningglory plant response rating (morningglory; [8]): 0
Plant response rating, Redroot pigweed (pigweed; [1]): 0
Redroot pigweed plant response rating (pigweed; [2]): 0
Redroot pigweed plant response rating (pigweed; [3]): 0
Redroot pigweed plant response rating (pigweed; [5]): 0
Redroot pigweed plant response rating (pigweed; [6]): 0
Redroot pigweed plant response rating (pigweed; [7]): 0
Redroot pigweed plant response rating (pigweed; [8]): 0
Plant response rating, Rape (rape; [1]): 0
Rape plant response rating (rape; [2]): 0
Rape plant response rating (rape; [3]): 0
Rape plant response rating (rape; [5]): 0
Rape plant response rating (rape; [6]): 0
Rape plant response rating (rape; [7]): 0
Rape plant response rating (rape; [8]): 0
Plant response rating, Soybean (soybean; [1]): 0
Soybean plant response rating (soybean; [3]): 0
Soybean plant response rating (soybean; [5]): 0
Soybean plant response rating (soybean; [6]): 0
Soybean plant response rating (soybean; [7]): 0
Soybean plant response rating (soybean; [8]): 0
Plant response rating, Sugarbeets (sugar beet; [1]): 0
Sugarbeets plant response rating (sugar beet; [3]): 0
Sugarbeets plant response rating (sugar beet; [5]): 0
Sugarbeets plant response rating (sugar beet; [6]): 0
Sugarbeets plant response rating (sugar beet; [7]): 0
Sugarbeets plant response rating (sugar beet; [8]): 0
Plant response rating, Velvetleaf (velvetleaf; [1]): 0
Velvetleaf plant response rating (velvetleaf; [3]): 0
Velvetleaf plant response rating (velvetleaf; [5]): 0
Velvetleaf plant response rating (velvetleaf; [6]): 0
Velvetleaf plant response rating (velvetleaf; [7]): 0
Velvetleaf plant response rating (velvetleaf; [8]): 0
Plant response rating, Wheat (wheat; [1]): 0
Wheat plant response rating (wheat; [3]): 0
Wheat plant response rating (wheat; [5]): 0
Wheat plant response rating (wheat; [6]): 0
Wheat plant response rating (wheat; [7]): 0
Wheat plant response rating (wheat; [8]): 0
Plant response rating, Wild oats (wild oat; [1]): 0
Wild oats plant response rating (wild oat; [3]): 0
Wild oats plant response rating (wild oat; [5]): 0
Wild oats plant response rating (wild oat; [6]): 0
Wild oats plant response rating (wild oat; [7]): 0
Wild oats plant response rating (wild oat; [8]): 0
Plant response rating, Nutsedge (purple nutsedge; [1]): 0
Nutsedge plant response rating (purple nutsedge; [2]): 0
Nutsedge plant response rating (purple nutsedge; [3]): 0
Nutsedge plant response rating (purple nutsedge; [5]): 0
Nutsedge plant response rating (purple nutsedge; [6]): 0
Nutsedge plant response rating (purple nutsedge; [7]): 0
Nutsedge plant response rating (purple nutsedge; [8]): 0

COP(=O)(CCn1c(=O)on(C(=O)N(c2ccc(F)cc2F)C(C)C)c1=O)OC [Compound 777]
Bedstraw plant response rating (bedstraw; [2]): 0
Bedstraw plant response rating (bedstraw; [3]): 3
Bedstraw plant response rating (bedstraw; [10]): 6
Bedstraw plant response rating (bedstraw; [6]): 0
Bedstraw plant response rating (bedstraw; [7]): 2
Bedstraw plant response rating (bedstraw; [8]): 0
Plant response rating, Bedstraw (bedstraw; [11]): 3
Blackgrass plant response rating (blackgrass; [2]): 0
Blackgrass plant response rating (blackgrass; [3]): 4
Blackgrass plant response rating (blackgrass; [10]): 4
Blackgrass plant response rating (blackgrass; [4]): 10
Blackgrass plant response rating (blackgrass; [6]): 2
Blackgrass plant response rating (blackgrass; [7]): 2
Blackgrass plant response rating (blackgrass; [8]): 10
Plant response rating, Blackgrass (blackgrass; [11]): 10
B. signalgrass plant response rating (surinam grass; [2]): 2
B. signalgrass plant response rating (surinam grass; [10]): 8
B. signalgrass plant response rating (surinam grass; [7]): 2
B. signalgrass plant response rating (surinam grass; [9]): 3
Cocklebur plant response rating (cocklebur; [2]): 0
Cocklebur plant response rating (cocklebur; [3]): 0
Cocklebur plant response rating (cocklebur; [10]): 0
Cocklebur plant response rating (cocklebur; [4]): 0
Cocklebur plant response rating (cocklebur; [6]): 0
Cocklebur plant response rating (cocklebur; [7]): 0
Cocklebur plant response rating (cocklebur; [8]): 0
Corn plant response rating (corn; [2]): 0
Corn plant response rating (corn; [3]): 0
Corn plant response rating (corn; [10]): 0
Corn plant response rating (corn; [4]): 0
Corn plant response rating (corn; [6]): 0
Corn plant response rating (corn; [7]): 0
Corn plant response rating (corn; [8]): 0
Plant response rating, Corn (corn; [11]): 0
Crabgrass plant response rating (crabgrass; [2]): 4
Crabgrass plant response rating (crabgrass; [3]): 9
Crabgrass plant response rating (crabgrass; [4]): 10
Crabgrass plant response rating (crabgrass; [6]): 10
Crabgrass plant response rating (crabgrass; [7]): 7
Crabgrass plant response rating (crabgrass; [8]): 10
Plant response rating, Crabgrass (crabgrass; [11]): 10
Giant foxtail plant response rating (giant foxtail; [2]): 8
Giant foxtail plant response rating (giant foxtail; [3]): 9
Giant foxtail plant response rating (giant foxtail; [10]): 9
Giant foxtail plant response rating (giant foxtail; [4]): 10
Giant foxtail plant response rating (giant foxtail; [6]): 10
Giant foxtail plant response rating (giant foxtail; [7]): 8
Giant foxtail plant response rating (giant foxtail; [8]): 10
Plant response rating, Giant foxtail (giant foxtail; [11]): 10
Morningglory plant response rating (morningglory; [2]): 8
Morningglory plant response rating (morningglory; [3]): 8
Morningglory plant response rating (morningglory; [10]): 8
Morningglory plant response rating (morningglory; [6]): 1
Morningglory plant response rating (morningglory; [7]): 8
Morningglory plant response rating (morningglory; [8]): 5
Plant response rating, Morningglory (morningglory; [11]): 7
Redroot pigweed plant response rating (pigweed; [2]): 2
Redroot pigweed plant response rating (pigweed; [3]): 4
Redroot pigweed plant response rating (pigweed; [10]): 8
Redroot pigweed plant response rating (pigweed; [6]): 2
Redroot pigweed plant response rating (pigweed; [7]): 4
Redroot pigweed plant response rating (pigweed; [8]): 2
Plant response rating, Redroot pigweed (pigweed; [11]): 9
Rape plant response rating (rape; [2]): 0
Rape plant response rating (rape; [3]): 0
Rape plant response rating (rape; [10]): 0
Rape plant response rating (rape; [6]): 0
Rape plant response rating (rape; [7]): 0
Rape plant response rating (rape; [8]): 2
Plant response rating, Rape (rape; [11]): 7
Soybean plant response rating (soybean; [3]): 6
Soybean plant response rating (soybean; [6]): 0
Soybean plant response rating (soybean; [7]): 3
Soybean plant response rating (soybean; [8]): 0
Plant response rating, Soybean (soybean; [11]): 0
Sugarbeets plant response rating (sugar beet; [3]): 5
Sugarbeets plant response rating (sugar beet; [6]): 0
Sugarbeets plant response rating (sugar beet; [7]): 3
Sugarbeets plant response rating (sugar beet; [8]): 3
Plant response rating, Sugarbeets (sugar beet; [11]): 3
Velvetleaf plant response rating (velvetleaf; [3]): 5
Velvetleaf plant response rating (velvetleaf; [6]): 0
Velvetleaf plant response rating (velvetleaf; [7]): 3
Velvetleaf plant response rating (velvetleaf; [8]): 0
Plant response rating, Velvetleaf (velvetleaf; [11]): 3
Wheat plant response rating (wheat; [3]): 3
Wheat plant response rating (wheat; [6]): 0
Wheat plant response rating (wheat; [7]): 2
Wheat plant response rating (wheat; [8]): 9
Plant response rating, Wheat (wheat; [11]): 9
Wild oats plant response rating (wild oat; [3]): 3
Wild oats plant response rating (wild oat; [6]): 3
Wild oats plant response rating (wild oat; [7]): 2
Wild oats plant response rating (wild oat; [8]): 9
Plant response rating, Wild oats (wild oat; [11]): 9
Nutsedge plant response rating (purple nutsedge; [3]): 3
Nutsedge plant response rating (purple nutsedge; [10]): 3
Nutsedge plant response rating (purple nutsedge; [6]): 0
Nutsedge plant response rating (purple nutsedge; [7]): 0
Plant response rating, Nutsedge (purple nutsedge; [11]): 1
